Biological target: T1, His-Cbl(TKB) (Homo sapiens, UniProt P22681)
T1 sequence (P22681 47-351 limits assumed): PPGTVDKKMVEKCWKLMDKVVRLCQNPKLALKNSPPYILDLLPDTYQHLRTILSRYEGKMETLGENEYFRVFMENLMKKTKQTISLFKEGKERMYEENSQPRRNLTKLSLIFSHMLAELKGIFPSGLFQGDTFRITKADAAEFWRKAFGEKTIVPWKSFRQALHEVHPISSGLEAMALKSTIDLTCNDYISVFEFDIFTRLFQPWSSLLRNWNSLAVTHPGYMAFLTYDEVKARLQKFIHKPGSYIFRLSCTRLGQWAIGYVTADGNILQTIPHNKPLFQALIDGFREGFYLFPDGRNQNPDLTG
Experiment: Competitive FP assay, displacement of labeled ZAP70 peptide 1 from His-Cbl
Assay type: binding
Settings: 100 nM labeled peptide 1

## CC(=O)N[C@H](C(=O)N[C@@H](CC(C)C)C(=O)N[C@@H](CC(N)=O)C(=O)N[C@@H](CO)C(=O)N[C@@H](CC(=O)O)C(=O)NCC(=O)N[C@@H](Cc1ccc(OP(=O)(O)O)cc1)C(=O)N[C@H](C(=O)N1CCC[C@H]1C(=O)N[C@@H](CCC(=O)O)C(=O)N1CCC[C@H]1C(=O)N[C@@H](C)C(N)=O)[C@@H](C)O)[C@@H](C)O [ZAP70 peptide 2, Ac-TLNSDGpYTPEPA-CONH2]
0.3 μM His-Cbl(TKB)
  ΔmP (competition): do not give measureable IC50 or ΔmP values
1.25 μM His-Cbl(TKB)
  ΔmP (competition): do not give measureable IC50 or ΔmP values
5 μM His-Cbl(TKB)
  ΔmP (competition): 52.5 mP
9 μM His-Cbl(TKB)
  ΔmP (competition): 85.2 mP
[…] His-Cbl(TKB)
  ΔmP (competition): 25.7 mP

— PMC3078584 (Analytical biochemistry, 2010)
